Source: patent US11814367B2, “Inhibitors of glycogen synthase 1 (GYS1) and methods of use thereof” (Maze Therapeutics, Inc., priority 2021, dated 2023)

Key:
[1] = target: hGYS2 enzyme (recombinant hGYS2/GN1 protein) (Homo sapiens (Human), UniProt P54840); test: GYS2 coupled enzyme assay (PK/LDH); format: biochemical; conditions: geometric mean of at least 2 assay runs on separate days, read-out: Avg_IC50
Outline: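 hGYS2/GN1 200 nM; UDP-Glc 2 mM; glycogen 0.2%; G6P 2 mM; PEP 2 mM, NADH 0.6 mM, PK/LDH 20 U/mL. 50 mM Tris pH 7.5, MgCl2, KCl, BSA, TCEP, 2.5% DMSO. Kinetic A340, 10 min. IC50 = geomean of ≥2 runs.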

[2] = target: hGYS1 enzyme (recombinant hGYS1/GN1 protein) (Homo sapiens (Human), UniProt P13807); test: GYS1 coupled enzyme assay (PK/LDH); format: biochemical; conditions: hGYS1/GN1 50 nM, UDP-Glucose 0.8 mM, G6P 1 mM; geometric mean of at least 2 runs
[3] = system: hGYS1 enzyme / glycogen synthesis in HeLa cells; test: GYS1 cell based assay (glycogen synthesis, Glucose-glo); parameters: species or system human; conditions: Homo sapiens, 24 h incubation, 20 mM glucose, geometric mean of at least 2 runs
Outline: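 HeLa cells starved 24 h in medium containing only 1× Glutamax were plated onto compound in medium with 20 mM glucose (1% DMSO final) for 24 h, 37 °C, 5% CO2. Acid lysates were Tris-quenched, glucoamylase-digested (pH 5.3, 1 h, 37 °C) and read by Glucose-glo luminescence. IC50 came from Hill fits, as geometric mean of ≥2 runs.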

Sequence of hGYS1 enzyme (recombinant hGYS1/GN1 protein) (P13807 whole entry): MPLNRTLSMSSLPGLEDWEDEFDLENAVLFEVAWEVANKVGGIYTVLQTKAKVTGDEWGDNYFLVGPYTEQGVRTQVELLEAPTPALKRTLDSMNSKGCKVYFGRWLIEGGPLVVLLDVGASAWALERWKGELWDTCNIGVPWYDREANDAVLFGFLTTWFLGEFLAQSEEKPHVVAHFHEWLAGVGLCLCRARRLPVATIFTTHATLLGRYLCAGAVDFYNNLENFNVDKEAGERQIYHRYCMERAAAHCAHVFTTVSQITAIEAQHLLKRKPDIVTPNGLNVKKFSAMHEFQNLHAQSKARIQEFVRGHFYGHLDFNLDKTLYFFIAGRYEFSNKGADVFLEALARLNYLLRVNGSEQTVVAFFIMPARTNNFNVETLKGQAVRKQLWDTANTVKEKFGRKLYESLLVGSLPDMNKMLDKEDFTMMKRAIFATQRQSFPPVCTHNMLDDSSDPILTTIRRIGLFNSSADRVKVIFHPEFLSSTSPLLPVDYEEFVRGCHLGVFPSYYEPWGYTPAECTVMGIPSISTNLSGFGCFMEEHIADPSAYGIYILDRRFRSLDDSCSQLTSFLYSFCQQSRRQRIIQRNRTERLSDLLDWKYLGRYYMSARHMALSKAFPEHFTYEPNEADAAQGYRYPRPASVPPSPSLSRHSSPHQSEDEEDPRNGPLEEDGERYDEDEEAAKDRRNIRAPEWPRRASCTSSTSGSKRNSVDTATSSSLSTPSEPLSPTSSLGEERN
Sequence of hGYS1 enzyme (recombinant hGYS1/GN1 protein) (P46976 whole entry partner): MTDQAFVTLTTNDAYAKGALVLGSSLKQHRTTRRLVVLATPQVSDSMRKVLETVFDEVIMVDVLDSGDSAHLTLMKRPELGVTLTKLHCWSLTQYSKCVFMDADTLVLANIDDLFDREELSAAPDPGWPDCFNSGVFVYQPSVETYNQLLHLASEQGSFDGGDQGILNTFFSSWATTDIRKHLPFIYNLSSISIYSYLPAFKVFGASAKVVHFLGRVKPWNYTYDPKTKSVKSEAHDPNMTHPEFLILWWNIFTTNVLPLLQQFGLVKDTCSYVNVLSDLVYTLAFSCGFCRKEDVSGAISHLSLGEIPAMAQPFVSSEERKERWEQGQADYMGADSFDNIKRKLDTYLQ
Sequence of hGYS2 enzyme (recombinant hGYS2/GN1 protein) (P54840 whole entry): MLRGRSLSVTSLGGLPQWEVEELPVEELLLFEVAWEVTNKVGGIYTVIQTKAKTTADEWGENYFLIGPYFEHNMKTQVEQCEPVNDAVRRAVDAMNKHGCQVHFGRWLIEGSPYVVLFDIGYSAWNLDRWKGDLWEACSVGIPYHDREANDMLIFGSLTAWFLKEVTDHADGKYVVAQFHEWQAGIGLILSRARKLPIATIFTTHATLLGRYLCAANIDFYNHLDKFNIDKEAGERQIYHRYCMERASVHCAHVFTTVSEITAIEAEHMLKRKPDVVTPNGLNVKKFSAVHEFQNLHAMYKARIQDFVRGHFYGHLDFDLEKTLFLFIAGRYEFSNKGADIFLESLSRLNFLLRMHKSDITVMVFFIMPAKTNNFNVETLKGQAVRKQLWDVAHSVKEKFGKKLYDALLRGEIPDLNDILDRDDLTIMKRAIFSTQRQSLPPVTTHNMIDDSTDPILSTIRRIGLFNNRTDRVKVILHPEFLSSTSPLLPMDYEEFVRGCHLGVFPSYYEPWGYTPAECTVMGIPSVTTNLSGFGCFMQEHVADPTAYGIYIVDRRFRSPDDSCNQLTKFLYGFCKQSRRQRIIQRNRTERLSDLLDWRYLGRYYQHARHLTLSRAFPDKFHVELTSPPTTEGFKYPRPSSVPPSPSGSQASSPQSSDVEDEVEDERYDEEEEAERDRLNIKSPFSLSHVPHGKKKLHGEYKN
Sequence of hGYS2 enzyme (recombinant hGYS2/GN1 protein) (P46976 whole entry partner): as the sequence (P46976 whole entry partner) above

IC50 [1] [nM]	IC50 [2] [nM]	IC50 ([3]; HeLa, 24 h) [nM]	SMILES	IC50 [3] [nM]
> 91800	104	4070	CC1(c2ccc([C@@H](NC(=O)[C@@H]3C[C@@H](F)CN3C(=O)COC(=O)N3CCN(CC4CC4)CC3)c3ccccc3)cc2F)CC1 [Compound 584, 2-[(2S,4R)-4-fluoro-2-{[(S)-[3-fluoro-4-(1-methylcyclopropyl)phenyl](phenyl)methyl]carbamoyl}pyrrolidin-1-yl]-2-oxoethyl 4-(cyclopropylmethyl) piperazine-1-carboxylate]	–
> 100000	202	3210	CC1(c2ccc([C@@H](NC(=O)[C@@H]3C[C@@H](F)CN3C(=O)COC(=O)N3CCN(CC(F)(F)F)CC3)c3ccccc3)cc2F)CC1 [Compound 585, 2-[(2S,4R)-4-fluoro-2-{[(S)-[3-fluoro-4-(1-methylcyclopropyl)phenyl](phenyl)methyl]carbamoyl}pyrrolidin-1-yl]-2-oxoethyl 4-(2,2,2-trifluoroethyl) piperazine-1-carboxylate]	–
> 100000	36	480	CC1(c2ccc([C@@H](NC(=O)[C@@H]3C[C@@H](F)CN3C(=O)Cc3n[nH]c4ccccc34)c3ccccc3)nc2F)CC1 [Compound 588, (2S,4R)-4-fluoro-N-[(S)-[6-fluoro-5-(1-methylcyclopropyl)pyridin-2-yl] (phenyl)methyl]-1-[2-(1H-indazol-3-yl)acetyl]pyrrolidine-2-carboxamide]	–
> 100000	101	1420	CC1(c2ccc([C@@H](NC(=O)[C@@H]3C[C@@H](F)CN3C(=O)CNC(=O)N3CCOCC3)c3ccccc3)nc2F)CC1 [Compound 589, N-{2-[(2S,4R)-4-fluoro-2-{[(S)-[6-fluoro-5-(1-methylcyclopropyl)pyridin-2-yl](phenyl)methyl]carbamoyl}pyrrolidin-1-yl]-2-oxoethyl} morpholine-4-carboxamide]	–
> 100000	2550	23400	CC1(c2ccc([C@H](NC(=O)[C@@H]3C[C@@H](F)CN3C(=O)Cc3n[nH]c4ccccc34)c3ccccc3)nc2F)CC1 [Compound 590, (2S,4R)-4-fluoro-N-[(R)-[6-fluoro-5-(1-methylcyclopropyl)pyridin-2-yl](phenyl)methyl]-1-[2-(1H-indazol-3-yl)acetyl]pyrrolidine-2-carboxamide]	–
> 100000	32	310	Cn1c(CC(=O)N2C[C@H](F)C[C@H]2C(=O)N[C@@H](c2ccccc2)c2ccc(C3(C)CC3)c(F)n2)cc2ccccc21 [Compound 591, (2S,4R)-4-fluoro-N-[(S)-[6-fluoro-5-(1-methylcyclopropyl)pyridin-2-yl](phenyl)methyl]-1-[2-(1-methyl-1H-indol-2-yl)acetyl]pyrrolidine-2-carboxamide]	–
> 100000	10	330	Cn1cc(CC(=O)N2C[C@H](F)C[C@H]2C(=O)N[C@@H](c2ccccc2)c2ccc(C3(C)CC3)c(F)n2)c2ccccc21 [Compound 592, (2S,4R)-4-fluoro-N-[(S)-[6-fluoro-5-(1-methylcyclopropyl)pyridin-2-yl](phenyl)methyl]-1-[2-(1-methyl-1H-indol-3-yl)acetyl]pyrrolidine-2-carboxamide]	–
> 100000	19	280	Cc1nc2ccccc2n1CC(=O)N1C[C@H](F)C[C@H]1C(=O)N[C@@H](c1ccccc1)c1ccc(C2(C)CC2)c(F)n1 [Compound 593, (2S,4R)-4-fluoro-N-[(S)-[6-fluoro-5-(1-methylcyclopropyl)pyridin-2-yl](phenyl)methyl]-1-[2-(2-methyl-1H-1,3-benzodiazol-1-yl)acetyl]pyrrolidine-2-carboxamide]	–
> 100000	50	720	CC1(c2ccc([C@@H](NC(=O)[C@@H]3C[C@@H](F)CN3C(=O)Cn3nnc4ccccc43)c3ccccc3)nc2F)CC1 [Compound 594, (2S,4R)-1-[2-(1H-1,2,3-benzotriazol-1-yl)acetyl]-4-fluoro-N-[(S)-[6-fluoro-5-(1-methylcyclopropyl)pyridin-2-yl](phenyl)methyl] pyrrolidine-2-carboxamide]	–
> 100000	25	460	CC1(c2ccc([C@@H](NC(=O)[C@@H]3C[C@@H](F)CN3C(=O)Cn3cnc4ccccc43)c3ccccc3)nc2F)CC1 [Compound 595, (2S,4R)-1-[2-(1H-1,3-benzodiazol-1-yl)acetyl]-4-fluoro-N-[(S)-[6-fluoro-5-(1-methylcyclopropyl)pyridin-2-yl](phenyl)methyl] pyrrolidine-2-carboxamide]	–
> 96700	20	280	Cn1nc(CC(=O)N2C[C@H](F)C[C@H]2C(=O)N[C@@H](c2ccccc2)c2ccc(C3(C)CC3)c(F)n2)c2ccccc21 [Compound 596, (2S,4R)-4-fluoro-N-[(S)-[6-fluoro-5-(1-methylcyclopropyl)pyridin-2-yl](phenyl)methyl]-1-[2-(1-methyl-1H-indazol-3-yl)acetyl]pyrrolidine-2-carboxamide]	–
> 100000	64	1320	CN1C(=O)C(CC(=O)N2C[C@H](F)C[C@H]2C(=O)N[C@@H](c2ccccc2)c2ccc(C3(C)CC3)c(F)n2)c2ccccc21 (stereo partly drawn) [Compound 597, (2S,4R)-4-fluoro-N-[(S)-[6-fluoro-5-(1-methylcyclopropyl)pyridin-2-yl](phenyl)methyl]-1-[2-(1-methyl-2-oxo-2,3-dihydro-1H-indol-3-yl)acetyl]pyrrolidine-2-carboxamide]	–
> 100000	40	720	CC1(c2ccc([C@@H](NC(=O)[C@@H]3C[C@@H](F)CN3C(=O)Cn3c(=O)[nH]c4ccccc43)c3ccccc3)nc2F)CC1 [Compound 599, (2S,4R)-4-fluoro-N-[(S)-[6-fluoro-5-(1-methylcyclopropyl)pyridin-2-yl](phenyl)methyl]-1-[2-(2-oxo-2,3-dihydro-1H-1,3-benzodiazol-1-yl)acetyl]pyrrolidine-2-carboxamide]	–
> 100000	36	620	Cn1c(=O)n(CC(=O)N2C[C@H](F)C[C@H]2C(=O)N[C@@H](c2ccccc2)c2ccc(C3(C)CC3)c(F)n2)c2ccccc21 [Compound 600, (2S,4R)-4-fluoro-N-[(S)-[6-fluoro-5-(1-methylcyclopropyl)pyridin-2-yl](phenyl)methyl]-1-[2-(3-methyl-2-oxo-2,3-dihydro-1H-1,3-benzodiazol-1-yl)acetyl]pyrrolidine-2-carboxamide]	–
> 100000	92	760	Cc1cc([C@@H](NC(=O)[C@@H]2C[C@@H](F)CN2C(=O)Cc2nnc(C(F)F)o2)c2ccccc2)ncc1C(C)C [Compound 602, (2S,4R)-1-(2-(5-(difluoromethyl)-1,3,4-oxadiazol-2-yl)acetyl)-4-fluoro-N—((S)-(5-isopropyl-4-methylpyridin-2-yl)(phenyl)methyl)pyrrolidine-2-carboxamide]	–
> 100000	40	470	CC(C)c1c(F)cc([C@@H](NC(=O)[C@@H]2C[C@@H](F)CN2C(=O)Cn2cnnn2)c2ccccc2)cc1F [Compound 669, (2S,4R)-N-[(S)-[3,5-difluoro-4-(propan-2-yl)phenyl](phenyl)methyl]-4-fluoro-1-[2-(1H-1,2,3,4-tetrazol-1-yl)acetyl]pyrrolidine-2-carboxamide]	–
> 100000	71	660	Cc1cc([C@@H](NC(=O)[C@@H]2C[C@@H](F)CN2C(=O)Cc2cnn[nH]2)c2ccccc2)ccc1C(C)C [Compound 670, (2S,4R)-4-fluoro-N-[(S)-[3-methyl-4-(propan-2-yl)phenyl](phenyl)methyl]-1-[2-(1H-1,2,3-triazol-5-yl)acetyl]pyrrolidine-2-carboxamide]	–
> 100000	82	1220	CC(C)c1ccc([C@@H](NC(=O)[C@@H]2C[C@@H](F)CN2C(=O)Cc2cnn[nH]2)c2ccccc2)cc1Cl [Compound 672, (2S,4R)-N-[(S)-[3-chloro-4-(propan-2-yl)phenyl](phenyl)methyl]-4-fluoro-1-[2-(1H-1,2,3-triazol-5-yl)acetyl]pyrrolidine-2-carboxamide]	–
> 100000	577	8490	CC(C)c1ccc([C@@H](NC(=O)[C@@H]2C[C@@H](F)CN2C(=O)Cc2cnn[nH]2)c2ccccc2)cc1C(F)F [Compound 679, (2S,4R)-N-[(S)-[3-(difluoromethyl)-4-(propan-2-yl)phenyl](phenyl)methyl]-4-fluoro-1-[2-(1H-1,2,3-triazol-5-yl)acetyl]pyrrolidine-2-carboxamide]	–

SMILES	IC50 [1] [nM]	IC50 [2] [nM]	IC50 ([3]; HeLa, 24 h) [nM]	IC50 [3] [nM]
CC(C)c1c(F)cc([C@@H](NC(=O)[C@@H]2C[C@@H](F)CN2S(=O)(=O)Cc2cnn[nH]2)c2ccccc2)cc1F [Compound 659, (2S,4R)-1-(((1H-1,2,3-triazol-5-yl)methyl)sulfonyl)-N—((S)-(3,5-difluoro-4-isopropylphenyl)(phenyl)methyl)-4-fluoropyrrolidine-2-carboxamide]	17500	331	–	4350
